According to US20190167611A1, “METHODS OF TREATING OR PREVENTING AMYLOID RELATED IMAGING ABNORMALITIES ASSOCIATED WITH ALZHEIMER'S DISEASE TREATMENT” (BIOGEN CHESAPEAKE LLC, priority 2016, published 2019):

Key:
[1] = human, in vivo
Description: The two groups are referred to as the 0.4 mg/day group and the 3.0 mg/day group, respectively.

[2] = system: Alzheimer's disease patients who present with clinically significant ARIA; assay: Clinical trial of glyburide plus standard of care versus placebo in Alzheimer's disease patients with clinically significant ARIA; type: in vivo, human; conditions: glyburide 0.5-3.0 mg/day, several routes
Description: In one arm, glyburide is administered as a bolus followed by continuous infusion. In a second arm, glyburide is administered via a transdermal patch or gel. In a third arm, glyburide is administered via injection. In a fourth arm, glyburide is administered orally. […] Total treatment duration will be a minimum of 72 hours and will continue as needed until acute brain edema has stabilized. […] Plasma levels of glyburide are determined daily or weekly. Each patient is monitored via blood sampling and MRI. Magnetic resonance imaging scans monitor patients for amyloid-related imaging abnormalities and progression of edema and/or associated hemorrhage. FLAIR sequences are evaluated for the presence of ARIA. A 4-point scale is used to assess presence of ARIA. The percentages of patients with ARIA are compared between treatment groups and placebo group.

Row | Metabolite exposure in relation to the administered dose of RP-1127 [1] | Dose dependence of pharmacokinetics [1] | SMILES | ARIA compared with the control group [2] | Brain edema compared with the control group [2] | Functional recovery compared with the control group [2] | Hemorrhage volume compared with the control group [2]
1 | approximately proportional |  | COc1ccc(Cl)cc1C(=O)NCCc1ccc(S(=O)(=O)NC(=O)NC2CCC(O)CC2)cc1 (stereo not shown) [M1] |  |  |  | 
2 | approximately proportional |  | COc1ccc(Cl)cc1C(=O)NCCc1ccc(S(=O)(=O)NC(=O)N[C@@H]2CCC[C@H](O)C2)cc1 [M2] |  |  |  | 
3 |  | dose-independent pharmacokinetics | COc1ccc(Cl)cc1C(=O)NCCc1ccc(S(=O)(=O)NC(=O)NC2CCCCC2)cc1 [glyburide] | significantly reduced or inhibited | reduced brain edema | improved functional recovery | reduced hemorrhage volume
